Assays:
[1] = biological target: T1, Dual specificity mitogen-activated protein kinase kinase 6 (Homo sapiens) (UniProt P52564); test: Selectivity interaction (ProQinase) EUB0000171b MAP2K6
T1 sequence (whole entry): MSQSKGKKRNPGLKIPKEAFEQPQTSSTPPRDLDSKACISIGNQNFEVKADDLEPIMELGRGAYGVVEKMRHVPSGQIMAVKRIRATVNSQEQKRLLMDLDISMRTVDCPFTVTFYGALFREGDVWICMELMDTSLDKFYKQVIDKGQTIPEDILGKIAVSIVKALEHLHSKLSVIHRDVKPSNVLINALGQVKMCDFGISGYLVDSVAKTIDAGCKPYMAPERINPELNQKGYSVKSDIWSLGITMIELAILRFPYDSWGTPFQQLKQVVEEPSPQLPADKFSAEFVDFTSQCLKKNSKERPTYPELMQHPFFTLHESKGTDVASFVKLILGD

[2] = biological target: Cyclin-dependent kinase 1 (Homo sapiens) (UniProt P06493); test: Selectivity interaction (Kinase panel (KiNativ target engagement assay in Jurkat cells)) EUB0001635a CDK1; format: cell-based; conditions: Selectivity number of off-targets 0.0, Selectivity number of targets 233.0, Source Knowledge https://www.sciencedirect.com/science/article/pii/S2451945619300674?via%3Dihub, at 1 µM
Cyclin-dependent kinase 1 (Homo sapiens), sequence (P06493 whole entry, looked up): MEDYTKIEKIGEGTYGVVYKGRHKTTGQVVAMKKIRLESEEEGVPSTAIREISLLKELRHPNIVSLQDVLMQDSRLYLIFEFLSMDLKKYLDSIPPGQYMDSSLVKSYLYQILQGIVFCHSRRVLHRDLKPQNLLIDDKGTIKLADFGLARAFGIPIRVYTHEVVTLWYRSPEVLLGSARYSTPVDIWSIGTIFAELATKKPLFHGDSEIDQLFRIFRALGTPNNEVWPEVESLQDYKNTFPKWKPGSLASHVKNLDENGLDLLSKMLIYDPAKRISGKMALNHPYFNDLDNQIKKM

[3] = biological target: Non-receptor tyrosine-protein kinase TYK2 (Homo sapiens, UniProt P29597); test: Selectivity interaction (KinomeScan (DiscoverX)) EUB0001868a TYK2; conditions: at 1 µM
Non-receptor tyrosine-protein kinase TYK2, sequence (P29597 whole entry): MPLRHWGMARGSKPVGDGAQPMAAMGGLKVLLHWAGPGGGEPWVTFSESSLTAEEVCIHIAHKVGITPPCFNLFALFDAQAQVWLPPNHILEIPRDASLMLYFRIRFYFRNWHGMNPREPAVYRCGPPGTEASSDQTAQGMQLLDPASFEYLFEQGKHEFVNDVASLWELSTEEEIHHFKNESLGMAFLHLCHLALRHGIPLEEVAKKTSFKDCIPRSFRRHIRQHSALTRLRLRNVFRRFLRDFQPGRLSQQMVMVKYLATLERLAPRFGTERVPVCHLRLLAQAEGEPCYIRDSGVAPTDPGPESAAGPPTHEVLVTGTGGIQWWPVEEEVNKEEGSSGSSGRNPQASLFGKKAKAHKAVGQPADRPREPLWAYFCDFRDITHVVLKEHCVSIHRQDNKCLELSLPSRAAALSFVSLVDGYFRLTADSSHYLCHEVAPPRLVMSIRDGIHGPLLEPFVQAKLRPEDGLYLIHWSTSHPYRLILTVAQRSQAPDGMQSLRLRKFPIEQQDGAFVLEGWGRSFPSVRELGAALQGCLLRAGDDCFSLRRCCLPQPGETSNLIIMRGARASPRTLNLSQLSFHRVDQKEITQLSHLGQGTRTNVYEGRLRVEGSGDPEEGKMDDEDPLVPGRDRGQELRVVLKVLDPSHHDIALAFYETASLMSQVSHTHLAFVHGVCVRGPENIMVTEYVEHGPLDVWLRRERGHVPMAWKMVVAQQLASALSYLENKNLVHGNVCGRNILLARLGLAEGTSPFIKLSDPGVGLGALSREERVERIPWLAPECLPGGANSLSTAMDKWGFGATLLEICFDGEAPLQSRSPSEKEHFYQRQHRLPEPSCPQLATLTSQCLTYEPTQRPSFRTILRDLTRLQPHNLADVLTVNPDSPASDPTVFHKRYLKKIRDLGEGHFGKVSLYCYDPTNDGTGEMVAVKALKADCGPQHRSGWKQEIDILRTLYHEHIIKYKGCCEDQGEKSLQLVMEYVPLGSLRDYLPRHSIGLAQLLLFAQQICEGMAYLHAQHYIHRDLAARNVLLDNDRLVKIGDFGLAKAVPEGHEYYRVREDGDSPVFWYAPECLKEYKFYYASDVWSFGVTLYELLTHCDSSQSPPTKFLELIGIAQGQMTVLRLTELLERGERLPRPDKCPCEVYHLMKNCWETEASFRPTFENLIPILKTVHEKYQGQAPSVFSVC

[4] = tested on: Leucine-rich repeat serine/threonine-protein kinase 2 (Homo sapiens), Q5S007 [G2019S]; conditions: at 10 µM
[5] = tested on: Tyrosine-protein kinase ABL1 (Homo sapiens), P00519 [H396P]; test: (§1) Selectivity interaction (LanthaScreen Eu Kinase Binding Assay) EUB0001632a ABL1; conditions: at 10 µM
[6] = tested on: Tyrosine-protein kinase ABL1 (Homo sapiens), P00519 [M351T]; test: as §1; conditions: at 10 µM
[7] = tested on: Tyrosine-protein kinase ABL1 (Homo sapiens), P00519 [Q252H]; test: as §1; conditions: at 10 µM
[8] = biological target: T2, Testis-specific serine/threonine-protein kinase 3 (Homo sapiens) (UniProt Q96PN8); test: Selectivity interaction (Kinase panel (Z-LYTE Assay)) EUB0001632a TSSK3; conditions: at 10 µM
T2 sequence (whole entry): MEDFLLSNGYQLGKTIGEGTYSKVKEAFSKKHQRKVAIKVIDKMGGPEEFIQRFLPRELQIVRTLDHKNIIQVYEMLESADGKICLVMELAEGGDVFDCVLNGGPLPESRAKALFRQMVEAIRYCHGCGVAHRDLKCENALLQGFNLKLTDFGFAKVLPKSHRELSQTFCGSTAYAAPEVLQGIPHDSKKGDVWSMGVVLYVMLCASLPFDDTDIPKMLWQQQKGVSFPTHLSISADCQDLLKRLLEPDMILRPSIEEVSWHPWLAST

[9] = biological target: Serine/threonine-protein kinase N1 (Homo sapiens, UniProt Q16512); test: Selectivity interaction (ActivX KiNativ screen (kinase selectivity in THP-1 cell lysates)) EUB0000639a PKN1; format: subcellular; conditions: lysate
Serine/threonine-protein kinase N1, sequence (Q16512 2-942 limits assumed): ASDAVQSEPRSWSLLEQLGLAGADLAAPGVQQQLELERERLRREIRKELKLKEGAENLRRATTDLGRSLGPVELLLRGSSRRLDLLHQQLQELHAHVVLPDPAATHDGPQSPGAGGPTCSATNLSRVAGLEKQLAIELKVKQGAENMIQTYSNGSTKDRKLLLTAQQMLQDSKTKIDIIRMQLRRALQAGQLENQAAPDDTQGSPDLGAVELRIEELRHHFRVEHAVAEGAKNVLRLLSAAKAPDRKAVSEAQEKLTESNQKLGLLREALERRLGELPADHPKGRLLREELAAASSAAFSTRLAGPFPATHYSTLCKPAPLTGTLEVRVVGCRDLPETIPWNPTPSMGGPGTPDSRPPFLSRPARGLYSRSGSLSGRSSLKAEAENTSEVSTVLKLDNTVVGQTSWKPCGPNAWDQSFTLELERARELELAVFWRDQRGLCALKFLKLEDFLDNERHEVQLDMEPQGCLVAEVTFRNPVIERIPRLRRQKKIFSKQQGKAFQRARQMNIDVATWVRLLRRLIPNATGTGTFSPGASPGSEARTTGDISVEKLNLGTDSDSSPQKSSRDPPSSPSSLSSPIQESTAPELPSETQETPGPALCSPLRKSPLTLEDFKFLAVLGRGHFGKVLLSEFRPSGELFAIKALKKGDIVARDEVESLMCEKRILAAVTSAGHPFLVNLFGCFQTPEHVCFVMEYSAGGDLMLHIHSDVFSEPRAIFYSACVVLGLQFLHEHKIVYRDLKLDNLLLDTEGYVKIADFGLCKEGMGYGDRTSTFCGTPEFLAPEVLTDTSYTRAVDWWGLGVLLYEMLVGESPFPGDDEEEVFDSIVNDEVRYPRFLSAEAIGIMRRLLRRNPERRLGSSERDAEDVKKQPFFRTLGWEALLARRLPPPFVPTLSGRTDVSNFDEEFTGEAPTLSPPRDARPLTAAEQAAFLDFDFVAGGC

[10] = biological target: T3, Mitogen-activated protein kinase 12 (Homo sapiens) (UniProt P53778); test: Selectivity interaction (SelectScreen profiling (Invitrogen)) EUB0000607a MAPK12; conditions: at 2 µM
T3 sequence (whole entry): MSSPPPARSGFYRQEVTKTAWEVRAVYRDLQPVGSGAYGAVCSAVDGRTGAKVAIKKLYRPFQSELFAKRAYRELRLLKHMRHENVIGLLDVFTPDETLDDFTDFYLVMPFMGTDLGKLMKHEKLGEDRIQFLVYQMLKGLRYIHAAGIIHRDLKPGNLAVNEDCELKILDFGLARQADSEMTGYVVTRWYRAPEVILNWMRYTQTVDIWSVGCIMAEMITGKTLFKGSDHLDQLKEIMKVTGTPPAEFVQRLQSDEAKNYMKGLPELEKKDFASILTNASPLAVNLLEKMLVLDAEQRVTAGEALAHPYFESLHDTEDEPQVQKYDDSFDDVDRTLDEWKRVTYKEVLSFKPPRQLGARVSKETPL

[11] = biological target: T4, Serine/threonine-protein kinase Nek2 (Homo sapiens) (UniProt P51955); test: Selectivity interaction (KinomeScan (DiscoverX)) EUB0001049a NEK2; conditions: at 1 µM
T4 sequence (whole entry): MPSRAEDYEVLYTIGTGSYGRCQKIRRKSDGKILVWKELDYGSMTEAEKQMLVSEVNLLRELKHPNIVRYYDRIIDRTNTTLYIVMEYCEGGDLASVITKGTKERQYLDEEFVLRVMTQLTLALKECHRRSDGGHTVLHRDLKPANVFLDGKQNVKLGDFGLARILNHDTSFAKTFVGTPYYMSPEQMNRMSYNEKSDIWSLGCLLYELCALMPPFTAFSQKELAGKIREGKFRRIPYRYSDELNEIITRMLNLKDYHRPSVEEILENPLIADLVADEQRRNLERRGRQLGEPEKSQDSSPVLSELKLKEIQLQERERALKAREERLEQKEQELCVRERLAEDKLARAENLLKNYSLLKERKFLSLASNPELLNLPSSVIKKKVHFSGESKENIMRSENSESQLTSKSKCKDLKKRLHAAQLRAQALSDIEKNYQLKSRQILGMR

[12] = biological target: Tyrosine-protein kinase Lck (Homo sapiens, UniProt P06239); test: Selectivity interaction (KinomeScan (DiscoverX)) EUB0000695a LCK; conditions: at 100 nM
Tyrosine-protein kinase Lck, sequence (P06239 2-509 limits assumed): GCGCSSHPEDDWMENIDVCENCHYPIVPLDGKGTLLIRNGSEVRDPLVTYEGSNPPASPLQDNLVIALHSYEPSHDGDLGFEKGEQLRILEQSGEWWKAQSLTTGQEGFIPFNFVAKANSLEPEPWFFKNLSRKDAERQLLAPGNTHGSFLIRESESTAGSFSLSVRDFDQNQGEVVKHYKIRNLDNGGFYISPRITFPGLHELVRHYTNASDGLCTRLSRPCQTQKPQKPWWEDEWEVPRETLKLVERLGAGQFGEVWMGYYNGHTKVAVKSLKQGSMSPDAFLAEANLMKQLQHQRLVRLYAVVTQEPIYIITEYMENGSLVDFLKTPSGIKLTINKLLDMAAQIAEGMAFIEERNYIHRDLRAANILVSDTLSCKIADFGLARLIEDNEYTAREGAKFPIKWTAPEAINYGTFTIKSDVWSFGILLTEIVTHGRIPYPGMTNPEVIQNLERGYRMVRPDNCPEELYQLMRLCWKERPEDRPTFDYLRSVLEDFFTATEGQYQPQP

[13] = biological target: Tyrosine-protein kinase CSK (Homo sapiens) (UniProt P41240); conditions: at 10 µM
Tyrosine-protein kinase CSK (Homo sapiens), sequence (P41240 2-450 limits assumed): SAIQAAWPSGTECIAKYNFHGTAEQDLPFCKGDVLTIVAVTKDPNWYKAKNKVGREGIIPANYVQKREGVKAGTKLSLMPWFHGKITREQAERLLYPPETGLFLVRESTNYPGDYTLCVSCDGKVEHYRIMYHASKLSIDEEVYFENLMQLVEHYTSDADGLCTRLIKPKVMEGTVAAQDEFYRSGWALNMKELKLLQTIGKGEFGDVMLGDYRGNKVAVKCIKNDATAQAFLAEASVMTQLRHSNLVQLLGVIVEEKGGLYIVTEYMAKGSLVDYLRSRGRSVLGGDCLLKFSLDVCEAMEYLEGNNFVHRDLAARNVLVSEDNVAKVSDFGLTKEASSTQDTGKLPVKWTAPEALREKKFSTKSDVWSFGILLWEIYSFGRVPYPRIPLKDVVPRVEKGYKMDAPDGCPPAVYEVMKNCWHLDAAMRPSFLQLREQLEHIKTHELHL

[14] = biological target: Serine/threonine-protein kinase Chk2 (Homo sapiens) (UniProt O96017); test: Selectivity interaction (Ambit KINOMEscan and KiNATiv profiling in Jurkat cells) EUB0000090b CHEK2; format: cell-based; conditions: at 1 µM
Serine/threonine-protein kinase Chk2 (Homo sapiens), sequence (O96017 whole entry): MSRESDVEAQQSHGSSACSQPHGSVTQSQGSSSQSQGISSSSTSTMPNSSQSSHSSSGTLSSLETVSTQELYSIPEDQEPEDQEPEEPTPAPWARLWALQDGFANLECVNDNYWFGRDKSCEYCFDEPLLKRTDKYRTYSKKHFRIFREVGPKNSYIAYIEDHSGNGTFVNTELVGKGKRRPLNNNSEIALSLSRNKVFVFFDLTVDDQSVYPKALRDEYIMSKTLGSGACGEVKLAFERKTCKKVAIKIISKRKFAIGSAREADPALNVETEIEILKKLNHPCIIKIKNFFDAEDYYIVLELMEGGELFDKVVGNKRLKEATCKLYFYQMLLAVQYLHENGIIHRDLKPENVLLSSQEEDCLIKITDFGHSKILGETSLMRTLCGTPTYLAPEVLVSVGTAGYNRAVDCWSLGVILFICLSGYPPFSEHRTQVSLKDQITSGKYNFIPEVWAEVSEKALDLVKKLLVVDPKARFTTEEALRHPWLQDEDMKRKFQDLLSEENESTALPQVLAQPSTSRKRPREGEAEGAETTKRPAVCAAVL

[15] = biological target: Serine/threonine-protein kinase PAK 1 (Homo sapiens) (UniProt Q13153); test: Selectivity interaction (Kinase screening (Nanosyn)) EUB0000604a PAK1
Serine/threonine-protein kinase PAK 1 (Homo sapiens), sequence (Q13153 whole entry): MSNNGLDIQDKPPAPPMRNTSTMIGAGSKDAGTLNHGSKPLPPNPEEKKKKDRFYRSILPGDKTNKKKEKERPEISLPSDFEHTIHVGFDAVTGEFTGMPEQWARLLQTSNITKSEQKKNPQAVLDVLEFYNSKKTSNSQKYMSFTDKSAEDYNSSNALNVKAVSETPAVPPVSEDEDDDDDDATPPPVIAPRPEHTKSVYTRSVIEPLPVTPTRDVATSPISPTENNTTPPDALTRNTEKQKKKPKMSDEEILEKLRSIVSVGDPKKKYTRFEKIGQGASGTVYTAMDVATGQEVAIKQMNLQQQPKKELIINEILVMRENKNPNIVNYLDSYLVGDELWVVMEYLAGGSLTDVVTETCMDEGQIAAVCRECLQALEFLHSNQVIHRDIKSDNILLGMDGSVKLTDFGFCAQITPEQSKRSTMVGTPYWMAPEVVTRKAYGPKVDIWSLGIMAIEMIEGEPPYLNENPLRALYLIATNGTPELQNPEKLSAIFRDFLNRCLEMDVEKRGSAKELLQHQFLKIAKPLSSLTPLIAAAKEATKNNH

## C=CC(=O)Nc1cccc(C(=O)Nc2ccc(Nc3cc(-c4[nH]c(SC)nc4C)ccn3)cc2)c1
[1]; at 1 µM
  % of control: 103%
[1]; at 5 µM
  % of control: 126%

## C=CC(=O)Nc1ccc(C(=O)Nc2[nH]nc3c2CN(C(=O)N[C@H](CN(C)C)c2ccccc2)C3(C)C)cc1
[2]
  % of engagement: -6.3%

## Cc1cc(-c2ccnc(Nc3cnn(C)c3)n2)ccc1CNC(=O)N1CC(OC(C)C)C1
[3]
  % of control: 47%

## Cc1cc([C@@H](C)Nc2ccccc2C(=O)O)c2nc(N3CCOCC3)cc(=O)n2c1 [AZD-6482]
[4]
  % of control: 100%

## Cn1cc(-n2cnc3c(NCc4nc5cc(Cl)c(Cl)cc5[nH]4)nc(N4CCOCC4)nc32)cn1
[5]
  % of inhibition: -3.27%
[6]
  % of inhibition: -10.1%
[7]
  % of inhibition: -18.3%
[8]
  % of control: 4.44%

## CC[C@@H]1[C@H](F)C(=O)N[C@@H]1COc1nccc2cc(C(N)=O)c(OC)cc12 [ZIMLOVISERTIB]
[9]; at 0.01 µM
  % of inhibition: 8.7%
[9]; at 0.04 µM
  % of inhibition: 3.4%
[9]; at 0.2 µM
  % of inhibition: 5%
[9]; at 1 µM
  % of inhibition: 5.9%
[9]; at 5 µM
  % of inhibition: 34.9%

## CNC(=O)Nc1ccc(-c2nc(N3CC4CCC(C3)O4)c3cnn(C4CCC5(CC4)OCCO5)c3n2)cc1
[10]
  % of inhibition: -2%

## COc1cc(Nc2nc(C)cc(-c3cnn4nc(OC)ccc34)n2)cc(C(F)(F)F)c1
[11]
  % of control: 98%

## Cc1cc(F)c(C(=O)Nc2cccc(-c3nncn3C(C)C)n2)cc1-n1cnc(C2CC2)c1
[12]
  % of control: 86%

## COCC(=O)NC/C=C/c1ccc2ncnc(Nc3ccc(Oc4ccc(C)nc4)c(C)c3)c2c1 [CP-724714]
[13]
  % of control: 59%

## CN(C)C/C=C/C(=O)Nc1ccc(C(=O)N2CCCC(Nc3ncc(Cl)c(-c4c[nH]c5ccccc45)n3)C2)cc1 (stereo not given)
[14]
  % of control: 81%

## Cc1cnc(Nc2ccc(F)cc2Cl)nc1-c1c[nH]c(C(=O)N[C@H](CO)c2cccc(Cl)c2)c1
[15]
  % of inhibition: 3%
